The source of these data is paper PMC4263137, “Positron emission tomography and functional characterization of a complete PBR/TSPO knockout” (Nature Communications, 2014).

Structures are written as SMILES.

For the assay, the target named is T1, PBR/TSPO (18-kDa translocator protein) (Mus musculus, UniProt P50637).
T1 construct: native protein in kidney and testis membranes of Tspo+/+ mice
Description: [3H]PK11195 saturation radioligand binding on tissue membranes; autoradiography; no binding in Tspo-/- mice.

T1 sequence (P50637 whole entry): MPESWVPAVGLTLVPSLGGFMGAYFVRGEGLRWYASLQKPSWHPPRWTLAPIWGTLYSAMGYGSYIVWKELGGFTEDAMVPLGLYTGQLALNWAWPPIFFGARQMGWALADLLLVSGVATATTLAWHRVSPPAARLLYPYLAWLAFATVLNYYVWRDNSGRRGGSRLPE

As for `CCC(C)N(C)C(=O)c1cc2ccccc2c(-c2ccccc2Cl)n1` (stereo not shown) [PK11195, 1-(2-chlorophenyl)-N-methyl-(1-methylpropyl)-3 isoquinolinecarboxamide], the Kd (as a rule, the constant that tells how readily two partners part at equilibrium) turned out to be 0.0129 µM.
